From the kinase profiling compilation of Christmann-Franck et al. (2016)

Tests used:
Experiment in all cases: radiometric filter-binding kinase assay, Kinase HotSpot
Details in all cases: compound 0.5 µM; ATP 10 µM
TEK (human) = TEK (human) (UniProt Q02763)
KIT (human) = KIT (human) (UniProt P10721)
STK10 (human) = STK10 (human) (UniProt O94804)
AURKB (human) = AURKB (human) (UniProt Q96GD4)
BRSK2 (human) = BRSK2 (human) (UniProt Q8IWQ3)
CAMK1 (human) = CAMK1 (human) (UniProt Q14012)
CAMK2B (human) = CAMK2B (human) (UniProt Q13554)
CDK9 CCNK (human) = CDK9 CCNK (human) (UniProt O75909+P50750)
ERBB4 (human) = ERBB4 (human) (UniProt Q15303)
CDK6 CCND1 (human) = CDK6 CCND1 (human) (UniProt Q00534+P24385)
PRKG2 (human) = PRKG2 (human) (UniProt Q13237)
MAP3K11 (human) = MAP3K11 (human) (UniProt Q16584)
CDK1 CCNB1 (human) = CDK1 CCNB1 (human) (UniProt P06493+P14635)
STK16 (human) = STK16 (human) (UniProt O75716)
STK4 (human) = STK4 (human) (UniProt Q13043)
SRMS (human) = SRMS (human) (UniProt Q9H3Y6)
PRKD3 (human) = PRKD3 (human) (UniProt O94806)
MAP3K2 (human) = MAP3K2 (human) (UniProt Q9Y2U5)
MAP3K9 (human) = MAP3K9 (human) (UniProt P80192)
MAP3K7 TAB1 (human) = MAP3K7 TAB1 (human) (UniProt O43318+Q15750)
PDPK1 (human) = PDPK1 (human) (UniProt O15530)
ZAP70 (human) = ZAP70 (human) (UniProt P43403)
AURKC (human) = AURKC (human) (UniProt Q9UQB9)
WEE1 (human) = WEE1 (human) (UniProt P30291)
PRKCB1 (human) = PRKCB1 (human) (UniProt P05771)
PDGFRA (human) = PDGFRA (human) (UniProt P16234)
MAP3K14 (human) = MAP3K14 (human) (UniProt Q99558)
CSK (human) = CSK (human) (UniProt P41240)
AKT2 (human) = AKT2 (human) (UniProt P31751)
MAPK10 (human) = MAPK10 (human) (UniProt P53779)
RAF1 (human) = RAF1 (human) (UniProt P04049)
CAMK2D (human) = CAMK2D (human) (UniProt Q13557)
EPHA2 (human) = EPHA2 (human) (UniProt P29317)
PAK7 (human) = PAK7 (human) (UniProt Q9P286)
CSNK2A1 (human) = CSNK2A1 (human) (UniProt P68400)
CAMK1G (human) = CAMK1G (human) (UniProt Q96NX5)
ROS1 (human) = ROS1 (human) (UniProt P08922)
IKBKE (human) = IKBKE (human) (UniProt Q14164)
PRKCZ (human) = PRKCZ (human) (UniProt Q05513)
DYRK1B (human) = DYRK1B (human) (UniProt Q9Y463)
SYK (human) = SYK (human) (UniProt P43405)
MAP3K3 (human) = MAP3K3 (human) (UniProt Q99759)

Chain of TEK (human) (Q02763 whole entry, looked up): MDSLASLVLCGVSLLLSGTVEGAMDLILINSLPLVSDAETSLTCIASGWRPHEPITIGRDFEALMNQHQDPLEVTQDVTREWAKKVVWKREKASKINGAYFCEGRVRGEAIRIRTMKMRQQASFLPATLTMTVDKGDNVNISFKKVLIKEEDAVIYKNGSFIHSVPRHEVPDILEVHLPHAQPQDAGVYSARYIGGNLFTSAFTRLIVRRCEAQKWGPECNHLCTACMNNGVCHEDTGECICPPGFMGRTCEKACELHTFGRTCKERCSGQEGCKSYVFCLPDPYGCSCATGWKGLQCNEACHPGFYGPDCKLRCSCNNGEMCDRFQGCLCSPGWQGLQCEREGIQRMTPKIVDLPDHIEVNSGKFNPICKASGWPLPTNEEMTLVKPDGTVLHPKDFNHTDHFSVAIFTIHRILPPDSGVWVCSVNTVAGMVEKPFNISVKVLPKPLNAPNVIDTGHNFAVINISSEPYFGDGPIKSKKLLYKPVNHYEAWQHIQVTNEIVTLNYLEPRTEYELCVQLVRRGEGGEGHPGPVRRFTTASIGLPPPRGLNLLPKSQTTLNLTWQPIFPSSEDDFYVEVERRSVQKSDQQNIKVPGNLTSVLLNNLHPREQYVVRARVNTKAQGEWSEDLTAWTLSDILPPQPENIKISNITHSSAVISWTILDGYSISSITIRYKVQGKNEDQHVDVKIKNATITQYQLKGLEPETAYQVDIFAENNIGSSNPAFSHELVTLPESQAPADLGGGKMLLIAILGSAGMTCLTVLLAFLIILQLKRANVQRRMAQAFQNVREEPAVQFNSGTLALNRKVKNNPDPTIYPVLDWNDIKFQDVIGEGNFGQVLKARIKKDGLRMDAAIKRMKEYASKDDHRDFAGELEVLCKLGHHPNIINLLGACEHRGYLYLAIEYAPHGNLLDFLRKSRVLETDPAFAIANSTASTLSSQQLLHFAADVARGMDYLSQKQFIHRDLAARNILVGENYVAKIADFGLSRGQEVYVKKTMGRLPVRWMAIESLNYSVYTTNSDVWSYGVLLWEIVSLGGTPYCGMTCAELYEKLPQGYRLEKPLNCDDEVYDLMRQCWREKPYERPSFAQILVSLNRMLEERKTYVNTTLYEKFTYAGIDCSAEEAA
Chain of IKBKE (human) (Q14164 whole entry, looked up): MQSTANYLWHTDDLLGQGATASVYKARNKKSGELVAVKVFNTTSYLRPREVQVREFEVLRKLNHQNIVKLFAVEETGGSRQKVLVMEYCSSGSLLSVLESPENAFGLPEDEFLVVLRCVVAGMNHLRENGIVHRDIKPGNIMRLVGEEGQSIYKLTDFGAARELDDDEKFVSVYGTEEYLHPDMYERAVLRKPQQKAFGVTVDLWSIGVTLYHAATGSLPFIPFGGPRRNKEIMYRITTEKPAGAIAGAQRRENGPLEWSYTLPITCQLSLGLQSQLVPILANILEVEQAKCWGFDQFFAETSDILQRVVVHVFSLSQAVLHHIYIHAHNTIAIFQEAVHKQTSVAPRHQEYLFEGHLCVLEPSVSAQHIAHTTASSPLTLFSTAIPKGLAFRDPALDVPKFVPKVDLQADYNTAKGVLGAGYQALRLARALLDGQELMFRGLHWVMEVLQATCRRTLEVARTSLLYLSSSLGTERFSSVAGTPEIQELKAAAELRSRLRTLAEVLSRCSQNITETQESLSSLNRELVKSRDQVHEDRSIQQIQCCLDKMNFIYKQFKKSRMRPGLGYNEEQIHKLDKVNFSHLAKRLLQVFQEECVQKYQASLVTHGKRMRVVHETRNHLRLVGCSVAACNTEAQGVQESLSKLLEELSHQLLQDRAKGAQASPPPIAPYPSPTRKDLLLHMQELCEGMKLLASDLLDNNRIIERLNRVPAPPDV
Chain of PRKCB1 (human) (P05771 whole entry, looked up): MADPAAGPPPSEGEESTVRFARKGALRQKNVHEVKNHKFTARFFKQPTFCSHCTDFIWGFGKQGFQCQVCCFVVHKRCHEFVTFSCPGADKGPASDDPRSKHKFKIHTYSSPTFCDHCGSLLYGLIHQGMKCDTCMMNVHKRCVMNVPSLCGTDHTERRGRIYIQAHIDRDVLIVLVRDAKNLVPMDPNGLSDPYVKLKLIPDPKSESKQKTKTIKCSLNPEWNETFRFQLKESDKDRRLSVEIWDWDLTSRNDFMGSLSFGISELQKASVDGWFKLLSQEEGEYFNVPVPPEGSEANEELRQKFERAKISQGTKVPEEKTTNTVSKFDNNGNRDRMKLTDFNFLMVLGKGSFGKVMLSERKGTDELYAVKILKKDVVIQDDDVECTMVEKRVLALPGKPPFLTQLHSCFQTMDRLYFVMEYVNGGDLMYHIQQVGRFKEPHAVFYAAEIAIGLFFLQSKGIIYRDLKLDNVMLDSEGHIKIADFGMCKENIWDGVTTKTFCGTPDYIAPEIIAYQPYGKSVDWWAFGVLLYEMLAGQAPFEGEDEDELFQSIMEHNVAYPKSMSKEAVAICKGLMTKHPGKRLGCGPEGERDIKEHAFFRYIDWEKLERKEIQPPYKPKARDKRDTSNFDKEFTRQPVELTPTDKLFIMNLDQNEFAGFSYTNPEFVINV
Chain of PRKCZ (human) (Q05513 whole entry, looked up): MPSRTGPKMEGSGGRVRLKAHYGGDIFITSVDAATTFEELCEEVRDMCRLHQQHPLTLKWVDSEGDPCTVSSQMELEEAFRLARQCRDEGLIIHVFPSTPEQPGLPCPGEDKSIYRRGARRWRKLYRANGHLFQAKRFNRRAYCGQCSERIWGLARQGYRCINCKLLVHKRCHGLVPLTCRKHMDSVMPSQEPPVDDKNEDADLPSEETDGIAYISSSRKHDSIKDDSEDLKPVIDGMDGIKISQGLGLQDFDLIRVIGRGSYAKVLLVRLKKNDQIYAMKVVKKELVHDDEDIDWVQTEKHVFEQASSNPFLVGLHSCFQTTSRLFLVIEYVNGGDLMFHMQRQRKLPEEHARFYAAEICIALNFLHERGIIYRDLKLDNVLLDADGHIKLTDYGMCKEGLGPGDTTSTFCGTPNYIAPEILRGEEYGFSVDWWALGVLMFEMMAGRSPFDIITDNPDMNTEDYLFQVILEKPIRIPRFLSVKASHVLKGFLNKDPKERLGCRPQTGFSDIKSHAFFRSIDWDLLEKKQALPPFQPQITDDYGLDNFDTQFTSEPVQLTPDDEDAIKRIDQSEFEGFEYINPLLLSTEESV
Chain of ERBB4 (human) (Q15303 whole entry, looked up): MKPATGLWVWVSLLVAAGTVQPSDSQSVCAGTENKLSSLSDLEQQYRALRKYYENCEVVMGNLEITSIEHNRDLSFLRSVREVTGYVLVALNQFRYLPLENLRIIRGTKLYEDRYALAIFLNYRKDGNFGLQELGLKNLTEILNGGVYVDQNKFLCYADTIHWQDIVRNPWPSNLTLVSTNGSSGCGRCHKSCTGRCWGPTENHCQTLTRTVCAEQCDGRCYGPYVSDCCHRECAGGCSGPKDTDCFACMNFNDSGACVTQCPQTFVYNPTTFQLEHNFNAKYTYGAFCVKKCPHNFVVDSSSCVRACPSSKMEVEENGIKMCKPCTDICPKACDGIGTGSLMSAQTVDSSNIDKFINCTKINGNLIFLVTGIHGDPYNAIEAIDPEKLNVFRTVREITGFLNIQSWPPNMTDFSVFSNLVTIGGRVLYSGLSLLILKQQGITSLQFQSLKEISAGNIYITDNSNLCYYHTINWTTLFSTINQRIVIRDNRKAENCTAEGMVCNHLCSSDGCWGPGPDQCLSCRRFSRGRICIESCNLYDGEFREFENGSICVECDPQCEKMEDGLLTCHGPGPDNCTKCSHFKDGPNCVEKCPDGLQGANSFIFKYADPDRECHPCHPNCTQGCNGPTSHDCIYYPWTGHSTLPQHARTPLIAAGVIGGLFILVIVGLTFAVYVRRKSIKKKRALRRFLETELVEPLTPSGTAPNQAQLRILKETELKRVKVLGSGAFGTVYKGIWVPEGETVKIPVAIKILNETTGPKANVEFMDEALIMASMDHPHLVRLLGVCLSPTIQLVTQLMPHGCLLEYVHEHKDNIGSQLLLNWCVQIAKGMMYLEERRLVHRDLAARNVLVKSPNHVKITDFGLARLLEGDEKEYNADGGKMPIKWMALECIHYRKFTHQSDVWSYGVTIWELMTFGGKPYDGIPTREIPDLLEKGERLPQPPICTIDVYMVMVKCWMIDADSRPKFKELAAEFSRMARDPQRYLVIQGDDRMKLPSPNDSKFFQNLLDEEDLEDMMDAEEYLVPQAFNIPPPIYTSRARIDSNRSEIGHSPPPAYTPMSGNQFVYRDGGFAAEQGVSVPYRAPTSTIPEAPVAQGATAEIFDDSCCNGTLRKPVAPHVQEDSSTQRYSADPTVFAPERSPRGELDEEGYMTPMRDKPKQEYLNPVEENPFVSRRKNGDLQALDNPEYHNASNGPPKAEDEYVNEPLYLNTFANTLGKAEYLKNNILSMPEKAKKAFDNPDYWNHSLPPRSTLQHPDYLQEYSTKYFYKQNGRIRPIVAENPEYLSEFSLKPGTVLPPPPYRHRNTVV
Chain of CAMK1 (human) (Q14012 whole entry, looked up): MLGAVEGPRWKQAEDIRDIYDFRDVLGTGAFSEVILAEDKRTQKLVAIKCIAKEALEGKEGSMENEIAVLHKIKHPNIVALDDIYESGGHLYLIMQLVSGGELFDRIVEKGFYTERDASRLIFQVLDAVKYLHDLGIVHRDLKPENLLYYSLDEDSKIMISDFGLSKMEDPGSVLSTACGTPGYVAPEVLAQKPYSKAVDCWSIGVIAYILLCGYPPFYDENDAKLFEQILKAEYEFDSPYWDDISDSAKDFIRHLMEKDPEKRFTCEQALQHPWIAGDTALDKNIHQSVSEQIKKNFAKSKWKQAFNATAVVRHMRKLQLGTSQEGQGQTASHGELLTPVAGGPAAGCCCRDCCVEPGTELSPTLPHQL

With `Oc1ccc(-c2nc(-c3ccc(F)cc3)c(-c3ccncc3)[nH]2)cc1` the residual activity (TEK (human)) was 99.6%, the residual activity (KIT (human)) was 97.7% and the residual activity (STK10 (human)) was 85%. The residual activity (AURKB (human)) was 104%, the residual activity (BRSK2 (human)) was 101% and the residual activity (CAMK1 (human)) was 108%. It also gave a residual activity (CAMK2B (human)) of 96.4%, a residual activity (CDK9 CCNK (human)) of 101% and a residual activity (ERBB4 (human)) of 83.1%. The residual activity (CDK6 CCND1 (human)) was 97.6%, the residual activity (PRKG2 (human)) was 94.2% and the residual activity (MAP3K11 (human)) was 25.2%. For the same compound, the residual activity (CDK1 CCNB1 (human)) was 99%, the residual activity (STK16 (human)) was 111% and the residual activity (STK4 (human)) was 105%. The residual activity (SRMS (human)) was 102%, the residual activity (PRKD3 (human)) was 69.8% and the residual activity (MAP3K2 (human)) was 95%. The residual activity (MAP3K9 (human)) was 53.1%, the residual activity (MAP3K7 TAB1 (human)) was 97.7% and the residual activity (PDPK1 (human)) was 98.2%. The residual activity (ZAP70 (human)) was 100%, the residual activity (AURKC (human)) was 94.2% and the residual activity (WEE1 (human)) was 94.9%. It also gave a residual activity (PRKCB1 (human)) of 63.7%, a residual activity (PDGFRA (human)) of 98.8% and a residual activity (MAP3K14 (human)) of 115%. It also gave a residual activity (CSK (human)) of 93.7%, a residual activity (AKT2 (human)) of 99% and a residual activity (MAPK10 (human)) of 117%. For the same compound, the residual activity (RAF1 (human)) was 25.8%, the residual activity (CAMK2D (human)) was 88.1% and the residual activity (EPHA2 (human)) was 91.3%. It also gave a residual activity (PAK7 (human)) of 107%, a residual activity (CSNK2A1 (human)) of 92.4% and a residual activity (CAMK1G (human)) of 98.5%. It also gave a residual activity (ROS1 (human)) of 89.8%, a residual activity (IKBKE (human)) of 101% and a residual activity (PRKCZ (human)) of 109%. The residual activity (DYRK1B (human)) was 105%, the residual activity (SYK (human)) was 101% and the residual activity (MAP3K3 (human)) was 103%.
With `O=C1Nc2cc(Br)ccc2/C1=C1/Nc2ccccc2/C1=N\O` the residual activity (TEK (human)) was 96.7%, the residual activity (KIT (human)) was 42.3% and the residual activity (STK10 (human)) was 52.8%. For the same compound, the residual activity (AURKB (human)) was 39.1%, the residual activity (BRSK2 (human)) was 19.4% and the residual activity (CAMK1 (human)) was 96%. The residual activity (CAMK2B (human)) was 65.8%, the residual activity (CDK9 CCNK (human)) was 37.5% and the residual activity (ERBB4 (human)) was 96.8%. The residual activity (CDK6 CCND1 (human)) was 35.9%, the residual activity (PRKG2 (human)) was 69.1% and the residual activity (MAP3K11 (human)) was 16%. For the same compound, the residual activity (CDK1 CCNB1 (human)) was 50.5%, the residual activity (STK16 (human)) was 64% and the residual activity (STK4 (human)) was 22.5%. For the same compound, the residual activity (SRMS (human)) was 99.6%, the residual activity (PRKD3 (human)) was 87.8% and the residual activity (MAP3K2 (human)) was 90.3%. For the same compound, the residual activity (MAP3K9 (human)) was 9.21%, the residual activity (MAP3K7 TAB1 (human)) was 79.3% and the residual activity (PDPK1 (human)) was 86.4%. For the same compound, the residual activity (ZAP70 (human)) was 107%, the residual activity (AURKC (human)) was 51.8% and the residual activity (WEE1 (human)) was 96%. For the same compound, the residual activity (PRKCB1 (human)) was 98.5%, the residual activity (PDGFRA (human)) was 68.4% and the residual activity (MAP3K14 (human)) was 89.6%. It also gave a residual activity (CSK (human)) of 65.8%, a residual activity (AKT2 (human)) of 101% and a residual activity (MAPK10 (human)) of 97.9%. It also gave a residual activity (RAF1 (human)) of 103%, a residual activity (CAMK2D (human)) of 23% and a residual activity (EPHA2 (human)) of 70.9%. For the same compound, the residual activity (PAK7 (human)) was 104%, the residual activity (CSNK2A1 (human)) was 82.2% and the residual activity (CAMK1G (human)) was 96%. The residual activity (ROS1 (human)) was 82%, the residual activity (IKBKE (human)) was 66.3% and the residual activity (PRKCZ (human)) was 100%. It also gave a residual activity (DYRK1B (human)) of 80.3%, a residual activity (SYK (human)) of 45.7% and a residual activity (MAP3K3 (human)) of 107%.
`Cc1ccc(NC(=O)c2ccc(CN3CCN(C)CC3)cc2)cc1Nc1nc(-c2cccnc2)cs1` was tested, and the residual activity (TEK (human)) was 97.2%, the residual activity (KIT (human)) was 41.3% and the residual activity (STK10 (human)) was 93.8%. The residual activity (AURKB (human)) was 99.5%, the residual activity (BRSK2 (human)) was 99.9% and the residual activity (CAMK1 (human)) was 102%. It also gave a residual activity (CAMK2B (human)) of 100%, a residual activity (CDK9 CCNK (human)) of 109% and a residual activity (ERBB4 (human)) of 93.5%. The residual activity (CDK6 CCND1 (human)) was 98%, the residual activity (PRKG2 (human)) was 95.4% and the residual activity (MAP3K11 (human)) was 101%. For the same compound, the residual activity (CDK1 CCNB1 (human)) was 97.6%, the residual activity (STK16 (human)) was 103% and the residual activity (STK4 (human)) was 101%. The residual activity (SRMS (human)) was 92.9%, the residual activity (PRKD3 (human)) was 92.7% and the residual activity (MAP3K2 (human)) was 102%. The residual activity (MAP3K9 (human)) was 104%, the residual activity (MAP3K7 TAB1 (human)) was 98.6% and the residual activity (PDPK1 (human)) was 101%. It also gave a residual activity (ZAP70 (human)) of 112%, a residual activity (AURKC (human)) of 112% and a residual activity (WEE1 (human)) of 97%. It also gave a residual activity (PRKCB1 (human)) of 101%, a residual activity (PDGFRA (human)) of 1.64% and a residual activity (MAP3K14 (human)) of 91%. For the same compound, the residual activity (CSK (human)) was 104%, the residual activity (AKT2 (human)) was 103% and the residual activity (MAPK10 (human)) was 94.2%. It also gave a residual activity (RAF1 (human)) of 77.5%, a residual activity (CAMK2D (human)) of 106% and a residual activity (EPHA2 (human)) of 91.2%. It also gave a residual activity (PAK7 (human)) of 92%, a residual activity (CSNK2A1 (human)) of 99.2% and a residual activity (CAMK1G (human)) of 106%. The residual activity (ROS1 (human)) was 91.5%, the residual activity (IKBKE (human)) was 97.2% and the residual activity (PRKCZ (human)) was 103%. The residual activity (DYRK1B (human)) was 95.7%, the residual activity (SYK (human)) was 101% and the residual activity (MAP3K3 (human)) was 108%.
